“Also recorded” adds a separate entry of the source.
How the values were obtained:
[1] = test system: fibroblasts from AD patients; experiment: Staining of lipid droplets with LipidTox Green; format: cell-based, human; details: 100 nM BI
Experimental: Quantification of total cholesterol and cholesteryl esters was performed using the Cholesterol/Cholesteryl Ester Quantitation kit from Calbiochem (428901). Staining of lipid droplets Staining of lipid droplets was performed using HCS LipidTox™ Deep Green neutral lipid stain (Invitrogen H34475) according to the manufacturer's instructions. Lipid droplet staining was quantified using ImageJ. The different values represent the product of the intensity and the area covered by the fluorescent signal above background in every cell examined.
(§1) Staining of lipid droplets was performed using HCS LipidTox™ Deep Green neutral lipid stain (Invitrogen H34475) according to the manufacturer's instructions. Lipid droplet staining was quantified using ImageJ. The different values represent the product of the intensity and the area covered by the fluorescent signal above background in every cell examined.

[2] = test system: WT MEFs and presenilin-mutant (PS-DKO) cells; experiment: Filipin staining of free cholesterol; format: cell-based, mouse; details: WT MEFs treated with DAPT, then BACE1 inhibitor
Experimental: Cells were washed in PBS and fixed in 3% paraformaldehyde at room temperature for 1 h. After washing in PBS three times, samples were incubated in 1.5 mg/ml glycine in 1×PBS to quench the paraformaldehyde and then incubated in 0.05 mg/ml of filipin in PBS/10% FBS for 2 h at room temperature. Free cholesterol signal was visualized in by microscopy and quantified by ImageJ.

[3] = test system: mitochondrial respiratory supercomplexes; experiment: Supercomplex analysis (blue-native gels, in-gel activity and western blot); format: cell-based, mouse
Experimental: Analysis and quantification of mitochondrial respiratory complexes by western blot and enzymatic in-gel activity were carried out as previously reported (Acin-Perez et al., 2008)
Analysis and quantification of mitochondrial respiratory complexes by Western blot and enzymatic in-gel activity were carried out as described (Acin-Perez et al, 2008).

WT and PS-DKO cells = experiment: Mitochondrial content and biogenesis (VDAC, TOM20 western blot; PGC-1α qRT-PCR); format: cell-based, mouse
Experimental: Total RNA was extracted from MEFs using TRIzol® Reagent (Invitrogen 15596-018) according to the manufacture's instructions, and was quantified by NanoDrop2000 (Thermo Scientific). […] of total RNA was used to obtain cDNA by RT-PCR using a High Capacity cDNA Reverse Transcription Kit (Applied Biosystems; PN 4368813, 4374966). Real-Time PCR was performed in triplicate in a StepOnePlus™ Real-Time PCR System (Applied Biosystems; 4376600). The expression of each gene under study was analyzed using specific predesigned TaqMan Probes (PGC-1α, ppargc1 Mm01208835_m1; aSMase, smpd1 Mm00488319_g1; nSMase, smpd3 Mm00491359_m1). The expression of each gene under study was analyzed using specific predesigned TaqMan Probes and normalizing against Gapdh expression (Applied Biosystems, 4352339E) as an internal standard.
Total RNA was extracted from MEFs using TRIzol® Reagent (Invitrogen 15596-018) according to the manufacture's instructions, and was quantified by NanoDrop2000 (Thermo Scientific). […] The expression of each gene under study was analyzed using specific predesigned TaqMan Probes (PGC-1α, ppargcl Mm01208835_ml; aSMase, smpd1 Mm00488319_g1; nSMase, smpd3 Mm00491359_ml). The forward and reverse primers for COXI quantification were, respectively, ([…] (SEQ ID NO: 5); […] (SEQ ID NO: 6)). […]

PS-DKO cells = experiment: Analysis of ER-mitochondrial apposition (colocalization of ER and mitochondrial markers); format: cell-based, mouse; details: 100 nM BI, 12-16 h
Experimental: Interactions between mitochondria and ER were performed as described (5).
Cells under were co-transfected with GFP-Sec61-β (Addgene plasmid #15108) and DsRed-Mito (Clontech, #632421) at a 1:1 ratio, using Lipofectamine 2000 (Invitrogen, #11668-027) in serum-free DMEM. Twelve hours post-transfection, cells were analyzed as described (8).
Cells under were co-transfected with GFP-Sec61-β (Addgene plasmid #15108) and DsRed2-Mito (Clontech, #632421) at a 1:1 ratio, using Lipofectamine 2000 (Invitrogen, #11668-027) in serum-free DMEM. Twelve hours post-transfection, cells were analyzed as described (Guardia-Laguarta et al., 2014).
Cells under were co-transfected with GFP-Sec61-β (Addgene plasmid #15108) and DsRed2-Mito (Clontech, #632421) at a 1:1 ratio, using Lipofectamine 2000 (Invitrogen, #11668-027) in serum-free DMEM. Twelve hours post-transfection, cells were analyzed as described (Guardia-Laguarta et al, 2014).

APP C-terminal fragments = experiment: Western blot of APP C-terminal fragments in total homogenates; format: cell-based, mouse; details: PS-DKO MEFs total homogenates; BI
Experimental: Purification of ER, MAM, and mitochondria was performed and analyzed as described (4).
Purification of ER, MAM, and mitochondria was performed and analyzed as described Area-Gomez et al., 2009, the contents of which is hereby incorporated by reference in its entirety.
Purification of ER, MAM, and mitochondria was performed and analyzed as described (Area-Gomez et al, 2009). For C99 detection, samples were run in 4-12% Bis-Tris gels (Criterion XT Precast Midi Gels, BioRad) in XT MES buffer.

HeLa cells = experiment: Staining of lipid droplets with LipidTox Green; format: cell-based, human; details: DAPT 10 μM alone or with BI 100 nM
Experimental: as §1

| Structure (SMILES) | number of lipid droplets (LDs) [1] | distribution of free cholesterol (filipin staining punctae) [2] | activity of supercomplexes I+III+IV, I+III and III+IV (in-gel complex I and IV activity) ([3]; mitochondria from PS-DKO cells incubated with BI or myriocin) | assembly of respiratory supercomplexes (blue-native PAGE western blot) ([3]; mitochondria from PS-DKO cells, anti-complex I and III antibodies) | mitochondrial content / biogenesis (VDAC, TOM20, PGC-1α mRNA) (WT and PS-DKO cells) | degree of ER-mitochondrial co-localization (apposition) (PS-DKO cells) | accumulation of APP C-terminal fragments (APP C-terminal fragments) | activity of supercomplexes I+III+IV, I+III and III+IV ([3]; mitochondria from DAPT-treated WT cells) | accumulation of lipid droplets (LDs) (HeLa cells) |
| --- | --- | --- | --- | --- | --- | --- | --- | --- | --- |
| C[C@@H](NC(=O)c1cc(C(=O)N[C@@H](Cc2ccccc2)[C@H](O)CNC2CC2)cc(N(C)S(C)(=O)=O)c1)c1ccccc1 [BI, β-secretase inhibitor IV] | reduced the number of LDs | reverse it | rescued | increases the assembly of supercomplexes I+III and I+III+IV | without changes in mitochondria; also recorded: do not affect mitochondrial biogenesis | reduced the degree of ER-mitochondrial co-localization significantly; also recorded: rescued the upregulation of ER-mitochondria apposition | eliminates the accumulation of APP C-terminal fragments |  |  |
| C[C@H](NC(=O)Cc1cc(F)cc(F)c1)C(=O)N[C@H](C(=O)OC(C)(C)C)c1ccccc1 [DAPT] |  | this phenotype was recapitulated |  |  | do not affect mitochondrial biogenesis |  |  | decrease in the activity of supercomplexes | LDs also accumulated; also recorded: Lipid droplets also accumulated |
